Results on one compound are retold here after US20260191836A1, “SOLID PREPARATION CONTAINING OXIDIZED CLOPIDOGREL AND PREPARATION METHOD THEREFOR” (CHENGDU SHIBEIKANG BIOMEDICAL TECHNOLOGY CO., LTD., priority 2022, published 2026).

This data set can be described thus: Properties of the drug substance (solubility, BCS class, stability). The format is physicochemical.

SMILES strings stand for the structures. Entries after “also recorded” stand apart in the source; their conditions may differ.

Consider `COC(=O)[C@H](c1ccccc1Cl)N1CC[C@@H]2SC(=O)C=C2C1` [(7aS, 2′S)-2-oxo-clopidogrel, methyl (S)-2-(2-chlorophenyl)-2-((S)-2-oxo-2,6,7,7a-tetrahydrothieno[3,2-c]pyridin-5 (4H)-yl)acetate], for which the BCS biopharmaceutical classification result is “low-solubility and high-permeability”; the “stability of the drug substance (in words)” value is “extremely prone to oxidative degradation; also recorded: instability under high temperature, acid and alkali conditions”. In addition, the solubility in acetonitrile entry (acetonitrile) is recorded as “soluble”. In addition, for the setting “methanol”, the solubility in methanol result is given as “slightly soluble”. Also, where the note is “water”, the solubility in water result is listed as “almost insoluble”.
